{
  "source": "patent US20040138199A1",
  "about": "“Benzoxazines and derivatives thereof as therapeutic agents” (priority 2002, published 2004)",
  "data": [
    {"molecular_target": "T1, p101/p110γ protein (PI3Kγ) (Homo sapiens, UniProt P48736)", "T1 construct": "HA; made in house; host or cells: Spodoptera frugiperda (Sf9) cells, baculovirus coinfection", "T1 sequence (P48736 whole entry, species assumed)": "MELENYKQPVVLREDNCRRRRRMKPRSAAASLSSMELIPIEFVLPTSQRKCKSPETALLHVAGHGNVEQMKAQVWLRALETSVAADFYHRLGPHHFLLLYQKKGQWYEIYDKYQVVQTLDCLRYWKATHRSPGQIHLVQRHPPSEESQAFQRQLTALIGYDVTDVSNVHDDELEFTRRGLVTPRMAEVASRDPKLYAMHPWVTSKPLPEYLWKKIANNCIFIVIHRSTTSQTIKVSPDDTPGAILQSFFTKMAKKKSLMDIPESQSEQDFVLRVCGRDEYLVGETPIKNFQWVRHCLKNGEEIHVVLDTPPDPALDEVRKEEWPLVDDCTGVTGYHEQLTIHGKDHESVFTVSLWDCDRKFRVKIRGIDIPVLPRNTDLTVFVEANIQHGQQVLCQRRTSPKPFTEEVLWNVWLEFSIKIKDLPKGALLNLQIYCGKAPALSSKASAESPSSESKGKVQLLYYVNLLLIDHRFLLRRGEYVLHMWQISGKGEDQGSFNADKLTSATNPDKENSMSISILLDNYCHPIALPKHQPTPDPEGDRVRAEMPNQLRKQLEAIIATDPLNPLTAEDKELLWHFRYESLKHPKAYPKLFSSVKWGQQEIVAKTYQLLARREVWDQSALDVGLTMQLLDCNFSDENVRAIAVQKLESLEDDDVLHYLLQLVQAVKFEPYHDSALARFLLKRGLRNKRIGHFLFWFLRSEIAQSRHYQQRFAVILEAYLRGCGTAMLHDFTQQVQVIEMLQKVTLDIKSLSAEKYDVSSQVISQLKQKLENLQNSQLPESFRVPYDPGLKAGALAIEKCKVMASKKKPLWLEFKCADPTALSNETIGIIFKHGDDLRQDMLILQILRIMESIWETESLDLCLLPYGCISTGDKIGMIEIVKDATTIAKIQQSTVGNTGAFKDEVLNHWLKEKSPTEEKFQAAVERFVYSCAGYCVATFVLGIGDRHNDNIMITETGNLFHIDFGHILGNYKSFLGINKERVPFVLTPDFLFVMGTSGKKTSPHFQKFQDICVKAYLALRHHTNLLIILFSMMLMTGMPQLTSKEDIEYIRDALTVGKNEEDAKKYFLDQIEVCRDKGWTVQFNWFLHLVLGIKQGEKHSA", "T1 sequence (Q8WYR1 whole entry partner, species assumed)": "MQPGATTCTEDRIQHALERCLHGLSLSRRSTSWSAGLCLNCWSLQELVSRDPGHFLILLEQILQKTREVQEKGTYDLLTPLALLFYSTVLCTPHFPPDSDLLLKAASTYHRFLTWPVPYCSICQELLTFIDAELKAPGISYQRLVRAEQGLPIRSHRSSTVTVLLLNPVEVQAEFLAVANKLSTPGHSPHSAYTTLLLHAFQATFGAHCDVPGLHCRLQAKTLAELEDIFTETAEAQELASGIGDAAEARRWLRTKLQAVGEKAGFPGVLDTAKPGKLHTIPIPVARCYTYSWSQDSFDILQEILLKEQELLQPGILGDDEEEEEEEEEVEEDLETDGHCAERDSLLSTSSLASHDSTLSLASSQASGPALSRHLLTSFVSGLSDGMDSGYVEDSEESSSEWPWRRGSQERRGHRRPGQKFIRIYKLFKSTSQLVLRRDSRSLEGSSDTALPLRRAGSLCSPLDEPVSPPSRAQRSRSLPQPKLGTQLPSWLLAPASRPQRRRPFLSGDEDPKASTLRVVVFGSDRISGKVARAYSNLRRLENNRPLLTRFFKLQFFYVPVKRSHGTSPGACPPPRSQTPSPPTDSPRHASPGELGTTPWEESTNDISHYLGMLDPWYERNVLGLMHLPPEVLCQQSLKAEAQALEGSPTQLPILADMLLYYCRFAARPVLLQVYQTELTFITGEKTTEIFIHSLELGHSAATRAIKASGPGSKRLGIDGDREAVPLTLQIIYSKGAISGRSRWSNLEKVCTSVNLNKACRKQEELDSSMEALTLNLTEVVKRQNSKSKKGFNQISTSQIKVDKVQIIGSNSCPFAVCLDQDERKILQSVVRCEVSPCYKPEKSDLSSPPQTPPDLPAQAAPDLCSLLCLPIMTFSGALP", "experiment": "PI3Kγ In Vitro Kinase Assay", "format": "biochemical", "details": "purified recombinant p101/p110γ with G protein β1/γ2 subunits; 20 μM ATP, 25 μM PIP2; 20 minutes at room temperature; radioactive PIP3 readout", "description": "Spodtera frugiperda cells, grown in ESF921 media, were coinfected with baculovirus expressing a glu-tagged […] and baculovirus expressing an HA-tagged p110γ, at a 3:1 ratio of p110 baculovirus to p110γ baculovirus. Sf9 cells were grown to 1×10^7 total cells/mL in 10L bioreactors and harvested 48-72 hours post infection. Samples of infected cells were then tested for expression of p101/p110γ PI3 kinase by immunoprecipitation and Western Blot analysis methods (see below).\nTo purify PI3Kγ, 4 volumes of room temperature hypotonic lysis buffer (1 mM MgCl2, 1 mM DTT, 5 mM EGTA, 1 mM Pefabloc, 0.5 μM aprotinin, […], 2 μM pepstatin, 5 μM E64, pH 8) per gram of cell paste, was poured onto frozen cell pellets with stirring, then lysed in a nitrogen “bomb” at 400 psi (599HC T316, Parr Instrument Co, Moline, Ill.). NaCl was added to 150 mM, and sodium cholate was added to 1% and mixed for another 45 minutes. The lysates were clarified by centrifugation for 25 minutes at 14,000 rpm. The lysates were then loaded over anti-glu-linked Protein-G Sepaharose beads (Covance Research Products, Richmond, Calif.) using 20 mL resin/50 g cell paste. The column was washed with 15 volumes of wash buffer (1 mM DTT, 0.2 mM EGTA, 1 mM Pefabloc, 0.5 μM aprotinin, 5 μM leupeptin, 2 μM pepstatin, 5 μM E64, 150 mM NaCl, 1% sodium cholate, pH 8). PI3Kγ was eluted with 6 column volumes of wash buffer that contain 100 μg/mL of a peptide that competes for binding of the glu tag. The column fractions with the eluted protein (determined by taking OD280 readings) were collected and dialyzed in 0.2 mM EGTA, 1 mM DTT, 1 mM Pefabloc, 5 μM leupeptin, 0.5% sodium cholate, 150 mM NaCl, and 50% glycerol, pH 8. The fractions were stored at −80° C. until further use.\nSpodtera frugiperda cells were coinfected with baculovirus expressing a glu-tagged G protein β1 and baculovirus expressing a […] at a 1:1 ratio of glu-tagged G protein β1 baculovirus to G protein β2 baculovirus. Sf9 cells are grown in 10 L bioreactors and harvested 48-72 hours post infection. Samples of infected cells were tested for G protein β1/β2 expression by Western Blot analysis, as described below. Cell lysates were homogenized and loaded onto a column of glu-tagged beads as in Biological Example 1 and competed off the column with a glu peptide as described in Biological Example 1.\nThe inhibitory properties of the compounds in Table 1 were assayed in an in vitro PI3K assay. In a 96-well polypropylene plate, each well was spotted with 2 μL of 50 times the desired final concentration of compound in DMSO. Purified recombinant p101/p110γ protein (0.03 μg; ˜2.7 nM) and G protein β1/γ2 subunits (0.09 μg; −57.7 nM) for each reaction was combined in the assay buffer (30 mM HEPES, 100 mM NaCl, 1 mM EGTA, and 1 mM DTT). ATP and [γ-^32P-ATP] (0.09 μCi) were added to this mixture so that the final ATP concentration in the reaction was 20 μM. Lipid micelles were formed by sonicating phosphatidylinositol-4,5-diphosphate (PIP2), phosphatidylethanolamine (PE), and Na-cholate in the assay buffer for 10 minutes, adding MgCL2 and incubating on ice for 20 minutes, for final concentrations of 25 μM PIP2, 300 μM PE, 0.02% Na-cholate, and 10 mM MgCl2 in the reaction. The reactions were started by adding equal volumes lipid and enzyme mixture in a total volume of 50 μL, allowed to run for 20 minutes at room temperature, and stopped with 100 μL 75 mM H3PO4. The lipid product was transferred to a glass fiber filter plate and washed with 75 mM H3PO4 several times. The presence of radioactive lipid product (PIP3) was measured by adding Wallac Optiphase mix to each well and counting in a Wallac 1450 Trilux plate reader (PerkinElmer Life Sciences Inc., Boston, Mass. 02118). The IC50 for each compound tested is reported in μM in Table 1: […]", "units": {"IC50": "µM"}, "values": [
      {"compound": "2-(4-Oxo-2-thioxo-thiazolidin-5-ylidenemethyl)-7,8-dihydro-6H-5-oxa-9-aza-benzocycloheptene-9-carboxylic acid (3,5-dimethoxy-phenyl)-amide [Example 113]", "IC50": 1.32},
      {"compound": "2-(4-Oxo-2-thioxo-thiazolidin-5-ylidenemethyl)-7,8-dihydro-6H-5-oxa-9-aza-benzocycloheptene-9-carboxylic acid p-tolyl ester [Example 107]", "IC50": 0.704},
      {"compound": "2-(4-Oxo-2-thioxo-thiazolidin-5-ylidenemethyl)-7,8-dihydro-6H-5-oxa-9-aza-benzocycloheptene-9-carboxylic acid p-tolylamide [Example 110]", "IC50": 3.5},
      {"compound": "2-(4-Oxo-2-thioxo-thiazolidin-5-ylidenemethyl)-7,8-dihydro-6H-5-oxa-9-aza-benzocycloheptene-9-carboxylic acid phenyl ester [Example 105]", "IC50": 0.424},
      {"compound": "2-Thioxo-5-{9-[3-(3-trifluoromethyl-phenyl)-acryloyl]-6,7,8,9-tetrahydro-5-oxa-9-aza-benzocyclohepten-2-ylmethylene}-thiazolidin-4-one [Example 124]", "IC50": 4.01},
      {"compound": "2-[2-(4-Oxo-2-thioxo-thiazolidin-5-ylidenemethyl)-7,8-dihydro-6H-5-oxa-9-aza-benzocycloheptene-9-carbonyl]-anthraquinone [Example 127]", "IC50": 4.99},
      {"compound": "4-(3,5-dimethyl-benzyl)-3,4-dihydro-2H-benzo[1,4]oxazine-6-ylmethylene]-2-thioxo-thiazolidin-4-one [Example 4]", "IC50": 0.65},
      {"compound": "4-[2-(4-Oxo-2-thioxo-thiazolidin-5-ylidenemethyl)-7,8-dihydro-6H-5-oxa-9-aza-benzocycloheptene-9-carbonyl]-benzonitrile [Example 121]", "IC50": 2.61},
      {"compound": "5-(9-Cyclopentanecarbonyl-6,7,8,9-tetrahydro-5-oxa-9-aza-benzocyclohepten-2-ylmethylene)-2-thioxo-thiazolidin-4-one [Example 111]", "IC50": 1},
      {"compound": "5-(9-Cyclopropanecarbonyl-6,7,8,9-tetrahydro-5-oxa-9-aza-benzocyclohepten-2-ylmethylene)-2-thioxo-thiazolidin-4-one [Example 104]", "IC50": 0.115},
      {"compound": "5-[4-(7,7-Dimethyl-2-oxo-bicyclo[2.2.1]hept-1-ylmethanesulfonyl)-3,4-dihydro-2H-1,4-benzoxazin-6-ylmethylene]-2-thioxo-thiazolidin-4-one [Example 60]", "IC50": 0.33},
      {"compound": "5-[4-(Furan-2-carbonyl)-3,4-dihydro-2H-1,4-benzoxazin-6-ylmethylene]-2-thioxo-thiazolidin-4-one [Example 41]", "IC50": 0.065},
      {"compound": "5-[9-(2-Benzyloxy-acetyl)-6,7,8,9-tetrahydro-5-oxa-9-aza-benzocyclohepten-2-ylmethylene]-2-thioxo-thiazolidin-4-one [Example 119]", "IC50": 1.65},
      {"compound": "5-[9-(2-Thiophen-2-yl-acetyl)-6,7,8,9-tetrahydro-5-oxa-9-aza-benzocyclohepten-2-ylmethylene]-2-thioxo-thiazolidin-4-one [Example 112]", "IC50": 1.14},
      {"compound": "5-[9-(3,4-Dichloro-benzoyl)-6,7,8,9-tetrahydro-5-oxa-9-aza-benzocyclohepten-2-ylmethylene]-2-thioxo-thiazolidin-4-one [Example 114]", "IC50": 1.38},
      {"compound": "5-[9-(3-Phenyl-acryloyl)-6,7,8,9-tetrahydro-5-oxa-9-aza-benzocyclohepten-2-ylmethylene]-2-thioxo-thiazolidin-4-one [Example 115]", "IC50": 1.52},
      {"compound": "5-[9-(4-Hexyl-benzoyl)-6,7,8,9-tetrahydro-5-oxa-9-aza-benzocyclohepten-2-ylmethylene]-2-thioxo-thiazolidin-4-one [Example 126]", "IC50": 4.2},
      {"compound": "5-[9-(5-tert-Butyl-2-methyl-furan-3-carbonyl)-6,7,8,9-tetrahydro-5-oxa-9-aza-benzocyclohepten-2-ylmethylene]-2-thioxo-thiazolidin-4-one [Example 125]", "IC50": 4.61},
      {"compound": "O=C1NC(=S)SC1=Cc1ccc2c(c1)N(C(=O)c1ccccc1)CCO2", "note": "[Example 1, 5-[4-(1-Phenyl-methanoyl)-3,4-dihydro-2H-benzo[1,4]oxazine-6-ylmethylene]-2-thioxo-thiazolidin-4-one]", "IC50": 0.056},
      {"compound": "O=C1NC(=S)SC1=Cc1ccc2c(c1)N(C(=O)C1CCCCC1)CCO2", "note": "[Example 2, 5-[4-(1-Cyclohexyl-methanoyl)-3,4-dihydro-2H-benzo[1,4]oxazine-6-ylmethylene]-2-thioxo-thiazolidin-4-one]", "IC50": 0.0217},
      {"compound": "O=C1NC(=S)SC1=Cc1ccc2c(c1)N(S(=O)(=O)c1ccccc1)CCO2", "note": "[Example 3, 5-[(4-benzenesulfonyl)-3,4-dihydro-2H-benzo[1,4]oxazine-6-ylmethylene)-2-thioxo-thiazolidin-4-one]", "IC50": 1.13},
      {"compound": "CC(C)(C)c1cc(CN2CCOc3ccc(C=C4SC(=S)NC4=O)cc32)cc(C(C)(C)C)c1", "note": "[Example 5, 5[4-(3,5-Di-tert-butyl-benzyl)-3,4-dihydro-2H-benzo[1,4]oxazine-6-ylmethylene]-2-thioxo-thiazolidin-4-one]", "IC50": 1.87},
      {"compound": "COc1cc(CN2CCCOc3ccc(C=C4SC(=S)NC4=O)cc32)cc(OC)c1", "note": "[Example 6, 5-[9-(3,5-Dimethoxy-benzyl)-6,7,8,9-tetrahydro-5-oxa-9-aza-benzocyclohepten-2-ylmethylene]-2-thioxo-thiazolidin-4-one]", "IC50": 0.151},
      {"compound": "Cc1cc(C)cc(CN2CCCOc3ccc(C=C4SC(=S)NC4=O)cc32)c1", "note": "[Example 7, 5-[9-(3,5-Dimethyl-benzyl)-6,7,8,9-tetrahydro-5-oxa-9-aza-benzocyclohepten-2-ylmethylene]-2-thioxo-thiazolidin-4-one]", "IC50": 0.78},
      {"compound": "CC1COc2ccc(C=C3SC(=S)NC3=O)cc2N1C(=O)c1ccccc1", "note": "(centres unmarked) [Example 8, 5-[3-Methyl-4-(-phenyl-methanoyl)-3,4-dihydro-2H-benzo[1,4]oxazine-6-ylmethylene]-2-thioxo-thiazolidin-4-one]", "IC50": 2.18},
      {"compound": "Cc1cc(C)cc(CN2c3cc(C=C4SC(=S)NC4=O)ccc3OCC2C)c1", "note": "(centres unmarked) [Example 9, 5-[4-(3,5-Dimethyl-benzyl)-3-methyl-3,4-dihydro-2H-benzo[1,4]oxazine-6-ylmethylene]-2-thioxo-thiazolidin-4-one]", "IC50": 2.59},
      {"compound": "O=C1NC(=S)SC1=Cc1ccc2c(c1)NCCO2", "note": "[Example 10, 5-(3,4-dihydro-2H-benzo[1,4]oxazine-6-ylmethylene)-2-thioxo-thiazolidin-4-one]", "IC50": 0.16},
      {"compound": "O=C1NC(=S)SC1=Cc1ccc2c(c1)N(C(=O)Cc1ccc3ccccc3c1)CCO2", "note": "[Example 11, 5-[4-(2-Naphthalen-2-yl-acetyl)-3,4-dihydro-2H-benzo[1,4]oxazine-6-ylmethylene]-2-thioxo-thiazolidin-4-one]", "IC50": 0.053},
      {"compound": "O=C1NC(=S)SC1=Cc1ccc2c(c1)N(C(=O)c1ccncc1)CCO2", "note": "[Example 12]", "IC50": 0.41},
      {"compound": "O=C1NC(=S)SC1=Cc1ccc2c(c1)N(C(=O)c1cccnc1)CCO2", "note": "[Example 13]", "IC50": 0.41},
      {"compound": "COc1cc(OC)cc(C(=O)N2CCOc3ccc(C=C4SC(=S)NC4=O)cc32)c1", "note": "[Example 14]", "IC50": 1.13},
      {"compound": "O=C1NC(=S)SC1=Cc1ccc2c(c1)N(C(=O)Cc1ccc(Cl)c(Cl)c1)CCO2", "note": "[Example 15]", "IC50": 0.0073}
    ]}
  ]
}
